Measured values reported in US20070077607A1, “Novel screening method” (priority 2003, published 2007).
Read-outs that look alike come from different tables or passages of the source.

Tests used:
guinea pig liver tTG = target: T1, guinea pig liver tTG (Cavia cutleri, UniProt P08587); assay: tTG cross-linking activity (incorporation of biotinylated cadaverine into FN); assay type: biochemical
T1 construct: Purified guinea pig liver tTG was either obtained by Sigma-Aldrich or purified in the laboratory; tissue Sigma-Aldrich (or purified in the laboratory according to Leblanc et al., 1999); host or cells: guinea pig liver
T1 sequence (P08587 2-690): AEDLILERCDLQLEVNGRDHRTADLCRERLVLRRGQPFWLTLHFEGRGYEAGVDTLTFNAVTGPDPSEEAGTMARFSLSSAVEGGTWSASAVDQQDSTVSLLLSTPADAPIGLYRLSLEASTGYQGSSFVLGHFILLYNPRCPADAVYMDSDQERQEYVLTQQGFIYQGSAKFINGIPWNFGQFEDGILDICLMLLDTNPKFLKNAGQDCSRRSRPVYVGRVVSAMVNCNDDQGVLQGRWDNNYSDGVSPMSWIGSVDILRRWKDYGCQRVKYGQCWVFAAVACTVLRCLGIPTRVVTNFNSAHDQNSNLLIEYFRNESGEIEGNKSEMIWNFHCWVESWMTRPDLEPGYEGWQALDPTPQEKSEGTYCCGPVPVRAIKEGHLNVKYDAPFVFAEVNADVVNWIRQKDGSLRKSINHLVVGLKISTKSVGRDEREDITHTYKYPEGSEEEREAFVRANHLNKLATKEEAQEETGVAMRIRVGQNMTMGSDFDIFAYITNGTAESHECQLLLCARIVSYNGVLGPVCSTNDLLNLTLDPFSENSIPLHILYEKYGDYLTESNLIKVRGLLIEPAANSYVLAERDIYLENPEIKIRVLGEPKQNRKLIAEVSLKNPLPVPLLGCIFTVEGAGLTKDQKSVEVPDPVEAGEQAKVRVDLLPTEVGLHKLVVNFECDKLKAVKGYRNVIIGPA
Description: (§1) The wells of a 96-well plate (0.32 cm^2) were coated with human plasma FN (5 μg/ml) in 50 mM Tris-HCl, pH 7.4, […], by incubation at 4° C. for approximately 15 h. For tTG immobilisation, the FN solution was removed, the wells were washed once in 50 mM Tris-HCl, pH 7.4 and then incubated with purified guinea pig liver tTG (20 μg/ml) in PBS pH 7.4 containing 2 mM EDTA pH 7.4, 100 μl/well. For control wells coated with tTG only, the tTG solution was added directly to tissue culture plastic (TCP). After one hour-incubation at 37° C., the tTG solution was removed and wells were washed once in 50 mM Tris-HCl, pH 7.4 and once in serum-free culture medium before cell seeding. The presence of tTG immobilised on FN was confirmed by an ELISA-type assay (Jones et al. 1997), using Cub 74 (1:5000). Absorbance values were read in an ELISA plate reader at 450 nm (Tecan Spectrafluor). Confirmation that the immobilised tTG was still active as a Ca^2+-dependent ε-(γ-glutamyl)lysine crosslinker was gained by measuring tTG activity with a microtitre assay that is based on the incorporation of biotinylated cadaverine into FN in the presence of 5 mM CaCl2 and 5 mM DTT (Jones et al. 1997) and compared with the activity of free tTG standard. To confirm that the cross-linking activity was Ca^2+-dependent, 5 mM CaCl2 was replaced with 5 mM EDTA pH 7.4. Absorbance values were read at 450 nm and data were expressed as absorbance value with Ca^2+ in the reaction buffer minus background absorbance value with EDTA in the reaction buffer. Similarly to tTG, FN antigen was detected by using a modified ELISA based on a rabbit polyclonal anti-FN antibody (1/5000) followed by peroxidase-labelled anti-rabbit IgG (1/5000).

HOB cells = assay: Cell adhesion assay (cell attachment and cell spreading), HOB cells; assay type: cell-based, human; conditions: for inhibition at 5 µM: Homo sapiens
Description: To evaluate cell attachment and cell spreading exponentially growing cells were detached from substratum by trypsinisation (0.25% (v/v) trypsin in 5 mM EDTA), collected into medium containing a ˜7% (V/V) final concentration of FCS, washed twice with medium without serum and then plated (2×10^4cells/well) onto FN-coated 96-well plates with and without further immobilisation of tTG. After a maximum of 20-minute incubation (to minimise the effect of any endogenous secreted proteins) at 37° C. in a 5% CO2 atmosphere, cells were fixed in 3.7% (w/v) paraformaldehyde in PBS pH 7.4, permeabilised in 0.1% (v/v) Triton X-100 and stained with May Grunwald and Giemsa stain (Jones et al 1997, Verderio et al. 2000). In some cases cells were pre-treated for 15 hours with 1 mM cycloheximide before plating to rule out any effects of endogenous secreted adhesion molecules. Digital images of three non-overlapping fields covering the central portion of each well was captured using a video digital camera (Olympus DP10) and examined using the Image Analysis programme Scion Image (National Institute of Health, USA). A total of at least nine images of separate fields per sample were examined for a total of at least 900 cells in the FN control. The number of cell particles in each field was measured by thresholding and particle analysis setting a minimum particle size of 50 pixels. Spread cells were analysed and quantified by “density slicing” and particle analysis.
Adhesion of cells to FN was decreased by pre-incubation with RGD synthetic peptide (50 μg/ml, ˜75 ∝M, 100 μg/ml ˜150 μM, or 200 μg/ml ˜300 μM) or function blocking anti-integrin antibodies 40 μg/ml anti-β1 integrin (JB1A), 30 μg/ml anti-α5 integrin (P1D6). Detached cells (as described above) were pre-incubated in suspension (2×10^5cells/ml) in serum-free medium containing either RGD peptide or anti-integrins antibodies at 37° C. for 10 minutes in 5% CO2 atmosphere, and then seeded in the presence of the peptides.

human plasma FN = assay: ELISA-type assay of tTG bound to immobilised FN; assay type: binding; conditions: 1 mM GTP-γS; ELISA using Cub 74
Description: as §1, with “Confirmation that the immobilised tTG was still active as a Ca^2+-dependent ε-(γ-glutamyl)lysine crosslinker was gained by measuring tTG activity with a microtitre assay that is based on the incorporation of biotinylated cadaverine into FN in the presence of 5 mM CaCl2 and 5 mM DTT (Jones et al. 1997) and compared with the activity of free tTG standard. To confirm that the cross-linking activity was Ca^2+-dependent, 5 mM CaCl2 was replaced with 5 mM EDTA pH 7.4.” left out

[1] = target: T2, tTG activity found at the HOB cell-surface (Homo sapiens, UniProt P21980); assay: tTG activity at the HOB cell-surface; assay type: cell-based; conditions: R283 treatment; data not shown
T2 construct: the low tTG activity found at the HOB cell-surface; endogenous in cells; host or cells: primary human osteoblasts (HOB)
T2 sequence (P21980 1-687): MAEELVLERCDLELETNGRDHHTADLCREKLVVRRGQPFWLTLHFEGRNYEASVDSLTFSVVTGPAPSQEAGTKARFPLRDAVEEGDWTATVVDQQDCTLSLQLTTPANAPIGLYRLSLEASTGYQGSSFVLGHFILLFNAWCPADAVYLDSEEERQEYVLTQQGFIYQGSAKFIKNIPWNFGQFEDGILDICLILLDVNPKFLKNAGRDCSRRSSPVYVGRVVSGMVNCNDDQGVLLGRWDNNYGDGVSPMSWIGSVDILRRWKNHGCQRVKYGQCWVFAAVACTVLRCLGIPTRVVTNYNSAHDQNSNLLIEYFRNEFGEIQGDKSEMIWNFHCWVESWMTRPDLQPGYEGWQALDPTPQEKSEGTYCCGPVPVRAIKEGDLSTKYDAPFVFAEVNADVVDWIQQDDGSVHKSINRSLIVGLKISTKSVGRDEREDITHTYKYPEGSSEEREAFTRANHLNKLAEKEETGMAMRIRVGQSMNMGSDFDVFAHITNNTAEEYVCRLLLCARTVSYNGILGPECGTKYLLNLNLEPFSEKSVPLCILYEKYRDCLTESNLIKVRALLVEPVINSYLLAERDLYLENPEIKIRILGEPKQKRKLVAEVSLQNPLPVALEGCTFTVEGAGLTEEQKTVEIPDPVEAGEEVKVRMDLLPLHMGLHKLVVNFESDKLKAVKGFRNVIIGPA

[2] = enzyme pre-treatment 15 mU/ml, RGD 100 μg/ml

O[C@@H](CS)[C@@H](O)CS [DTT]
increase of transamidating activity of FN-bound tTG (guinea pig liver tTG; DMEM with 5 mM DTT versus DMEM): approx 6 fold

Cn1c2ccccc2c2c3c(c4c5ccccc5n(CCC#N)c4c21)CNC3=O [GO6976]
effect on inhibition of attachment and spreading mediated by the RGD peptide (HOB cells; 5 μM GO6976, FN + RGD): significantly augment the inhibition
inhibition at 5 µM (HOB cells; 5 μM GO6976, RGD peptide, read-out: inhibition of attachment mediated by the tTG-FN complex): > 90%
inhibition at 5 µM (HOB cells; 5 μM GO6976, RGD peptide, read-out: inhibition of spreading mediated by the tTG-FN complex): ~85%
inhibition at 5 µM (HOB cells; 5 μM GO6976, control peptide RAD, read-out: inhibition of attachment on FN): ~30%
inhibition at 5 µM (HOB cells; 5 μM GO6976, control peptide RAD, read-out: inhibition of spreading on FN): ~30%

Nc1nc2c(ncn2[C@@H]2O[C@H](COP(=O)(O)OP(=O)(O)OP(O)(O)=S)[C@@H](O)[C@H]2O)c(=O)[nH]1 [GTP-γS]
RGD-independent cell attachment and spreading mediated by tTG-FN (HOB cells; 1 mM GTP-γS, RGD 100 μg/ml): partially but significantly reduced
level of tTG immobilised on FN (human plasma FN): did not significantly alter
transamidating activity of FN-bound tTG (guinea pig liver tTG; GTP-γS, DMEM with reducing agent, data not shown): acts as transamidating inhibitor

CC(=O)CSc1n(C)cc[n+]1C.[Cl-] [R283]
cell adhesion on FN bound to R283-inactivated tTG relative to adhesion on FN with RGD peptide (HOB cells; 100 μM R283): twice
cell adhesion on FN bound to R283-inactivated tTG versus without R283 (HOB cells; 100 μM R283, with or without RGD peptide): not significantly different
transamidating activity of immobilised tTG (guinea pig liver tTG; 100 μM R283): completely blocked
tTG activity at the HOB cell-surface [1]: inhibited to negligible values

GRADSP [RAD peptide]
cell attachment on FN compared to untreated cells (RAD 0) (HOB cells; 200 μg/ml RAD control peptide): reduction in cell attachment

chondroitinase ABC
cell adhesion to FN (HOB cells; chondroitinase ABC 15 mU/ml): no significant affect
RGD-independent cell attachment on tTG-FN (HOB cells; [2]): only marginally affected
RGD-independent cell spreading on tTG-FN (HOB cells; [2]): did not significantly alter
